Assay results reported in a melting point compilation (Tetko et al.; mined from patent text by program, amines drawn as free bases though some values may be those of a salt).

Row | SMILES | melting point
1 | CCCCNC(=O)c1ccc(Cl)c(-n2nc(CCCC)n(Cc3ccc(-c4ccccc4S(=O)(=O)NC(=O)OC(C)(C)C)cc3F)c2=O)c1 | 98 to 100 °C
2 | NC(Cc1ccccc1F)=NO | 85 to 87 °C
3 | CCc1nc(C2CCCC2)n2nc(-c3ccc(OC)c(S(=O)(=O)N4CCOCC4)c3)[nH]c(=O)c12 | 204 °C
4 | CCN(CC)CC1CCCCN1CC(=O)N1c2ccccc2C(=O)Nc2ccc(Cl)nc21 (stereo not drawn) | 191 to 192 °C
5 | COc1ccc(NC(=O)c2ccc(F)c(F)c2)cc1NC(=S)Nc1cccc(C(=O)O)c1 | 218 to 220 °C
6 | O=CN(O)C(CO)CS(=O)(=O)c1ccc(-c2ccc(OC(F)(F)F)cc2)cc1 (stereo not drawn) | 167 to 168 °C
7 | O=C(CC(F)(F)F)NNc1nccc(-c2ccc(OC3CCOCC3)c(Cl)c2)c1Cl | 191 °C
8 | COc1cc(-c2nc3ccccc3n2Cc2ccccc2C)cc(OC)c1OC | 140 °C
9 | COc1cc2c(cc1Cl)NC(=O)c1ccccc1S2 | 280 to 283 °C
10 | Cc1csc(C(=O)N2CCCC2)c1-n1cccc1 | 178 °C
11 | CC(C)(C)c1cc(SCCCCSCC(=O)O)cc(C(C)(C)C)c1O | 84 to 86 °C
12 | O=C(O)CCCCc1ccc([N+](=O)[O-])cn1 | 105 to 107 °C
13 | CCOCCOC(=O)Nc1c(C#N)cnn1-c1ccc(Cl)c(Cl)c1Cl | 122 to 124 °C
14 | Cc1ccc(-c2cn(C)cc(-c3ccccc3)c2=O)cc1C | 108 to 111 °C
15 | COC(=O)NC(=O)CC1=C(Cc2ccc3c(Br)cccc3c2)C(=O)CCC1 | 128 to 129 °C
16 | CC1(C)[C@H](C=C(Cl)Cl)[C@@H]1C(=O)OCc1cccc(-c2ccc(Br)o2)c1 (relative stereo) | 76.5 to 77 °C
17 | COC(=O)c1ccc2cc(CCCc3cc4ccc(C(=O)OC)cc4o3)oc2c1 | 100 to 101 °C
18 | NS(=O)(=O)c1ccc(-c2cscc2-c2ccccc2)cc1F | 171 °C
19 | NC(=O)NNc1c(Cl)cccc1Cl | 288 to 290 °C
20 | CCc1ccc2c(=O)cc(C(=O)O)[nH]c2c1 | 271 °C
21 | Cc1ccc2cccc(OCc3c(Cl)ccc(N(C)C(=O)CNC(=O)C=Cc4ccc(C(=O)O)cc4)c3Cl)c2n1 | 238 to 241 °C
22 | CCOC(=O)[C@H](Cc1cccc(C#N)c1)NS(=O)(=O)c1ccc2c(c1)CN(C(C)C)CC2 | 110 °C
23 | CC(C)(C)C(F)(F)c1ccc(C[C@@H](NC(=O)c2ccc(F)c3ccccc23)[C@@H](O)c2cccc(Cl)c2)cc1 (racemic) | 104 to 106 °C
24 | Cc1cc(Oc2ccc([N+](=O)[O-])cc2)n[nH]1 | 124 to 125 °C
25 | O=c1nc(N2CCOCC2)ccn1C1OC(CO)C(O)C1O (stereo not drawn) | 106 to 108 °C

Row | SMILES | melting point
26 | COc1cc(Nc2nccc(-c3ccc(NCCCN)nc3)n2)cc(OC)c1OC | 152 to 153 °C
27 | COc1cc(C=CC(COc2ccccc2)=NO)ccc1O | 155 to 158 °C
28 | CCOC(=O)CCC(=O)c1ccc(C2CCCCC2)cc1 | 54 to 55 °C
29 | Cc1cc(C)cc(-c2cnn3c(-c4cccc(-c5nnn(CC6CCC6)n5)c4)ccnc23)c1 | 64 °C
30 | CCN1c2ncc(CO)cc2C(=O)N(C)c2ccc(Cl)nc21 | 166 to 168 °C
31 | c1ccc(-c2nc3c([nH]2)CCCC3CN2CCN(c3ncccn3)CC2)cc1 (stereo not drawn) | 200 to 202 °C
32 | COc1ccc(NS(=O)(=O)c2ccc(N3CCC(NCC(O)c4ccc(O)c(NS(C)(=O)=O)c4)CC3)cc2)cc1OC (stereo not drawn) | 205 to 218 °C
33 | Cc1cc(COc2ccc(CC(=O)O)cc2Cl)ccc1OC(C)C | 104 to 105 °C
34 | O=c1[nH]c2ccc(S(=O)CCN3CCC(O)(Cc4ccccc4)CC3)cc2o1 (stereo not drawn) | 138 to 140 °C
35 | CCC(O)(CC)c1ccc(-c2cccc(OCc3ccc(CO)c(CO)c3)c2)cc1C | 76 °C
36 | CCCOc1ccc2c(c1)[C@@H](c1ccc(OC)cc1OCCO)[C@@H](C(=O)OC)[C@H]2c1ccc2c(c1)OCO2 (racemic) | 165 to 168 °C
37 | COc1ccc2[nH]c3cc(-c4cccc([N+](=O)[O-])c4)c4c(c3c2c1)C(=O)NC4=O | > 340 °C
38 | O=c1ccn(-c2cccnc2)nc1-c1ccnn1-c1ccccc1 | 176 to 177 °C
39 | COC(=O)CCC1(CCC(=O)OC)c2cc(I)ccc2-c2ccc(I)cc21 | 106 to 108 °C
40 | CC(C)(CCCCOCCCCC(C)(C)C(=O)O)C(=O)O | 49 to 51 °C
41 | CCOC(=O)c1c[nH]c2c(OC)csc2c1=O | 244 to 247 °C
42 | Cc1nc(CN2C(=O)COc3cc(N)ccc32)no1 | 146 to 148 °C
43 | CCOC(=O)c1cc(OC)c(C)cc1N | 60 to 62 °C
44 | O=C(Cc1ccc(Br)cn1)Nc1ccccn1 | 131 °C
45 | Cc1c(NCCNC(=O)OC(C)(C)C)c([N+](=O)[O-])c2nnnn2c1C | 145 to 147 °C
46 | N#CCC1CC(=O)N(c2ccc(Cl)cc2)C1 (stereo not drawn) | 92 to 94 °C
47 | CC=CC(=O)Nc1n[nH]c2cc(C(F)(F)F)ccc12 | 208 °C
48 | COC(=O)NC(=N)N(C(=O)OC)c1c(Cc2ccccc2)c[nH]c1C(=O)OC | 158 to 160 °C
49 | O=C1CC2(CN1)CC(=O)c1cc(F)ccc12 (stereo not drawn) | 198 to 202 °C
50 | CCCCNc1ccc2cc(Cl)cnc2c1C#N | 89 °C

Row | SMILES | melting point
51 | CCCN(CCC)c1nc2cc3c(cc2s1)CC(N)C3 (stereo not drawn) | 127 to 128 °C
52 | O=S(=O)(CS(=O)(=O)/C(F)=C(/F)c1c(F)c(F)c(F)c(F)c1F)/C(F)=C(/F)c1c(F)c(F)c(F)c(F)c1F | 193 to 195 °C
53 | COc1ccc2c(c1)[C@H]1CN(C)CC[C@@H]1CC2=O (relative stereo) | > 250 °C
54 | O=C1OCCN1CCN1CCN(C2Cc3cc(Cl)ccc3Oc3ccc(F)cc32)CC1 (stereo not drawn) | 180 to 182 °C
55 | COc1ccc(S(=O)(=O)n2ccc3ccnc(-c4ccncc4)c32)cc1 | 193 to 194 °C
56 | CCOP(=O)(Cc1nsc2ccc(-n3c(=O)cc(C(F)(F)F)n(C)c3=O)cc12)OCC | 142 to 144 °C
57 | O=[N+]([O-])c1cc(-c2nnc(Cl)cc2O)ccc1Cl | 204 to 209 °C
58 | Cc1cc2ncc(-c3nnnn3C)c(O)c2cc1C | 301 to 303 °C
59 | C[C@H]1Cn2c(=O)[nH]c3cc(N)cc(c32)CN1CC1CC1 | 189 °C
60 | CCOc1nn(C(=O)NS(=O)(=O)Nc2c(C)cccc2C(=O)CC)c(=O)n1C | 134 °C
61 | CC(C)C1(C)N=C(c2nc3occ(Cl)c3cc2C(=O)O)NC1=O (stereo not drawn) | 239 to 240 °C
62 | COc1cc2ncnc(N3CCN(C(=S)Nc4cccc(NC(C)=O)c4)CC3)c2cc1OC | 207 to 208 °C
63 | CSc1csc2ccc(Br)cc12 | 56 to 57 °C
64 | O=CN(O)C(CS(=O)(=O)c1ccc(Oc2ccc(OC(F)(F)F)cc2)cc1)C1CCC2(CC1)OCCO2 (stereo not drawn) | 176 to 177 °C
65 | Cc1ccncc1-c1nc(-c2ccc(S(N)(=O)=O)cc2)cs1 | 219 °C
66 | CCN(CC)C(=O)N[C@H]1CC[C@H](CCN2CCN(c3cccc4c3CCC4)CC2)CC1 | 157 to 159 °C
67 | CC(=O)Nc1c(C(=O)c2nccn2C)[nH]c2cc(Cl)ccc12 | 205 to 207 °C
68 | CN(C)CCc1cc2occc2c(=O)[nH]1 | 97.5 to 98 °C
69 | COc1ccc(-c2nc(CCOc3ccc(CN(O)C(N)=O)cc3)c(C)o2)cc1 | 100 to 101 °C
70 | NC(=O)c1ccc(NC(=NC(=O)c2cccc(Br)c2)NC(=O)c2ccccc2)cc1 | 282 to 283 °C
71 | CC(=O)OCC1OC(Oc2ccsc2C(=O)c2ccc(OC(F)(F)F)cc2)C(OC(C)=O)C(OC(C)=O)C1OC(C)=O (stereo not drawn) | 90 to 93 °C
72 | CCOC(=O)C1=CC(CF)(CF)Oc2ccc(Cl)cc21 | 76 to 78 °C
73 | CCOc1ccc(-c2ccc(C3COC(c4c(F)cccc4F)=N3)cc2)cn1 (stereo not drawn) | 119 °C
74 | O=C1NCC2(CCN(C(=O)OCc3ccccc3)CC2)O1 | 126 to 128 °C
75 | CCc1c(C(=O)c2ccc(OC)cc2)c2cccc3c2n1C(CN1CCOCC1)CO3 (stereo not drawn) | 186 to 187 °C

Row | SMILES | melting point
76 | CSC1C(=O)Nc2c(C(=O)c3ccccc3)cccc21 (stereo not drawn) | 130 °C
77 | Cc1cc(C)n(-c2cc(OS(C)(=O)=O)c(Cl)cc2F)n1 | 77.5 to 79 °C
78 | Cc1cccc(C(=O)c2[nH]c3cc(Cl)ccc3c2N)n1 | 210 to 211 °C
79 | COc1cc(/C=C/CO)cc(OC)c1OCc1ccccc1 | 72 to 73 °C
80 | CCCc1c(OCc2cccn3c(=O)c(C(=O)O)cnc23)ccc(C(C)=O)c1O | 170 to 172 °C
81 | Cc1oc(-c2ccco2)nc1COc1ccc(CCl)cc1Br | 125 to 126 °C
82 | N#Cc1cnn(-c2ccc(C(F)(F)F)cc2[N+](=O)[O-])c1N | 234 to 236 °C
83 | Cc1ccc(-n2ncc(C(=O)Nc3ccc(N4CCC(N5CCOCC5)CC4)c(C#N)c3)c2C)cc1 | 243 °C
84 | CCCCCCCCCCCCCCCCCCS(=O)c1cc2ccccc2cc1O (stereo not drawn) | 107 to 108 °C
85 | C[Si](C)(C)N1CCCCCN([Si](C)(C)C)CCN([Si](C)(C)C)CC1 | 78 to 86.5 °C
86 | CCOC(=O)/C(=C/c1ccccc1)OC(C)=O | 41 to 47 °C
87 | CCCCc1nc(=O)n2nc(-c3ccc(F)cc3)cc2[nH]1 | 238 °C
88 | C#CC1(O)CCC2C3CCC4=CC(=O)C=CC4(C)C3CCC21C (stereo not drawn) | 218 to 219 °C
89 | COc1ccc(S(=O)(=O)N2CCc3cccc(-c4ccc([N+](=O)[O-])cc4)c32)cc1 | 177 to 178 °C
90 | O=C(O)CN(CC(CO)N(CCCO)CC(=O)O)CC(CO)N(CCCO)CC(=O)O (stereo not drawn) | 173 to 177 °C
91 | CON=C(C#N)c1ccccc1COc1ccccc1C | 53 to 54 °C
92 | CCCCn1c(=O)c2c(ncn2CCC(C)=O)n(CCCC)c1=O | 86 to 87 °C
93 | O=c1[nH]cnc2c1-c1ccc(Cl)cc1C(c1ccccc1)=NC2 | 226 to 229 °C
94 | CC1c2ccccc2CCON1C(N)=O (stereo not drawn) | 128 to 129 °C
95 | CN(C)CCCC1(C(=O)O)CCCCC1(O)c1ccccc1 (stereo not drawn) | 144 to 145 °C
96 | CCOC(=O)C1=C(N)NC(CF)=C(C(=O)OCC)C1c1cccc([N+](=O)[O-])c1 (stereo not drawn) | 177 to 178 °C
97 | O=C(Nc1cccc(-c2ccc(C(=O)O)cc2)c1)OCC1c2ccccc2-c2ccccc21 | 110 to 112 °C
98 | O=C(COc1ccccc1)Nc1ccc(CN2C(=O)[C@H]3CCC[C@H]3N(C(=O)CN3C(=O)c4ccccc4C3=O)c3ccccc32)cc1 (relative stereo) | 134 to 137 °C
